Measurements from patent publication US7504394B2 (Wyeth, priority 2004, dated 2009).
Converted amounts (≈) assume the structure as drawn.

What was measured:
[1] = system: ovariectomized rat model of osteopenia; conditions: cited from earlier work
[2] = system: MCF-7 cell line (human breast cancer cell line); conditions: cited from earlier work
uterine response = conditions: preclinical models of uterine stimulation; cited from earlier work
[3] = Equilibrium solubility of bazedoxifene ascorbate in 0.0005 M acetic acid at 37° C.; assay type: physicochemical; conditions: aqueous buffer, thermodynamic from solid, filtered 0.2 um, HPLC
Protocol: The samples were rotated at 50 rotation/min for 18 hours. All samples were filtered through 0.2 um (Nylon Acrodisc) filter. Samples were analyzed by HPLC.

| solubility thermodynamic at 18 h [3] [mg/mL] | Compound | effect on bone loss [1] | effect on cholesterol [1] | estrogen agonist/antagonist behaviour [2] | stimulation of uterine response (uterine response) |
| --- | --- | --- | --- | --- | --- |
|  | Cc1c(-c2ccc(O)cc2)n(Cc2ccc(OCCN3CCCCCC3)cc2)c2ccc(O)cc12 [bazedoxifene acetate] | estrogen agonist-like effect in preventing bone loss | reducing cholesterol | behaves as an estrogen antagonist | little or no stimulation of uterine response |
| 1.66 (≈ 3.53 mM) | Cc1c(-c2ccc(O)cc2)n(Cc2ccc(OCCN3CCCCCC3)cc2)c2ccc(O)cc12 [bazedoxifene ascorbate, 1-[4-(2-azepan-1-yl-ethoxy)-benzyl]-2-(4-hydroxy-phenyl)-3-methyl-1H-indol-5-ol] |  |  |  |  |
